Experimental data as given in patent US5478807A, “Use of relaxin in the treatment of bradycardia” (Genentech, Inc., priority 1992, dated 1995).
Several values for one entry are separate records, joined by “and”; a condition that tells them apart may be missing. Equal entries are not always repeated.

How the values were obtained:
[1] = test system: primary human uterine cell line; assay: cAMP bioassay in primary human uterine cell line; format: cell-based
Procedure: The phosphorylated relaxin was assayed for its ability to increase cAMP levels in a primary human uterine cell line. The procedure of Kramer et al. [Kramer et al., In Vitro Cell, Dev, Biol. 26, 647-656 (1990)] was modified and carried out as follows: human uterine cells at passage 15-22 were grown to confluency in Ham's F12/DMEM (1/1, v/v) medium supplemented with 10% heat-inactivated newborn calf serum, 100 unites/ml penicillin, 100 μg/ml streptomycin, 2 mM glutamine and 24 mMHEPES, pH 7.4. Cells were plated into 6-well culture plates at 10^5 cells/well and incubated overnight at 37° C. and 5% CO2 in air. The cells (at 60-80% confluency) were then washed twice with F12/DMEM-24 mMHEPES, pH 7.4 (buffer B) at room temp. […] Aliquots of the extracts were then neutralized with 0.1 N NaOH and cAMP levels were measured in a radioimmunoassay. The assay was based on the competition between cAMP and a fixed quantity of ^125 I-labeled cAMP (Du Pont) for binding to a goat anti-cAMP antibody (Cambridge). […] The radioactivity in the pellet was measured in a gamma counter, and the amount of cAMP in the samples was determined by comparison with a standard cAMP curve. A relaxin standard curve was constructed in which the cAMP concentrations (pmol/ml) determined in the radioimmunoassay were plotted as a function of stimulating relaxin concentrations (ng/ml). […]

right atrium = assay: Right atrial rate, isolated spontaneously beating right atrium; set-up: species or system rat; settings: for right atrial heart rate % Δ, mean (X): mean of experiments; for right atrial heart rate / right atrial heart rate % Δ: single experiment
Procedure: (§1) Krebs-Henseleit solution was prepared with the following composition (in millimoles): NaCl 118; KCl 4.7; MgSO4 1.64; NaHCO3 24.88; KH2 PO4 1.18; d-glucose 11.1; bubbled with 95% O2 /5% CO2; CaCl2 2.52.
(§2) Human (H2) relaxin (hRLx-2, 1.5 mg/ml; Genentech) was diluted fresh daily to desired concentrations (500:1; 5000:1; 50000:1) in Krebs-Henseleit solution.
(§3) Male Wistar rats (Charles River) weighing 475-525 g each, were anesthetized with sodium pentobarbital (60 mg/kg). After thoracotomy, the heart was removed rapidly and placed in cold (4° C.) Krebs-Henseleit solution until spontaneous contractions ceased. The right and left atria were excised.
(§4) Tissue was bathed in an organ chamber holding 42 ml Krebs-Henseleit solution that was aerated with 95% O2 /5% CO2 and heated to 37° C. with a temperature controlled water jacket. Tissue contractions were measured with force-displacement transducers (Grass FT 0.3) and recorded on chart paper (Grass moled 79 polygraph). The rates of contractions were determined with a cardiotachometer (Grass). Electrical stimulation of tissue was induced through bipolar clip electrodes connected to a stimulator through a stimulus isolation unit (Grass model S48).
Stainless steel clips weighing 0.5 g each were attached to each end of the right atrium. One clip was secured to a hook within the organ chamber and the other clip was attached to the force-displacement transducer. The position of the transducer was adjusted to yield 0.5 g resting tension.
(§5) In all experiments the atria were allowed to stabilize for 30 minutes prior to addition of drugs. […] Thus, cumulative dose-response curves were generated. At 10 minute intervals, relaxin was added to each organ chamber to obtain bath concentrations of 100 pg/ml, 300 pg/ml, 1 ng/ml, 3 ng/ml, 10 ng/ml and 30 ng/ml.
(§6) Measurement of contraction rate and force of contraction following each dose of relaxin were obtained after responses reached a steady state. Rate was determined directly from the output of the cardiotachometer. Force of contraction was measured as the magnitude of the contractile twitches. In order to adjust for variations between tissues, data are expressed as percent changes from pre-drug values, as means±standard errors. Measurements of rate were obtained in seven right atria; measurement of contractile force were obtained in four left atria.

[2] = Intravenous injection of relaxin, earlier experiments; format: in vivo
[3] = test system: rat isolated atrial preparations; settings: cited from earlier work
left atrium = assay: Left atrial contraction, isolated electrically paced left atrium; set-up: species or system rat; settings: for left atrium contractile force % Δ, mean (X): mean of four left atria; for left atrium contractile force % Δ: single experiment
Procedure: as §1, §2, §3, §4
A stainless steel clip was attached to the distal end of the left atrium and the proximal end was attached to a bipolar electrode. The electrode assembly was secured within the organ chamber and the upper clip was attached to the force-displacement transducer. The position of the transducer was adjusted to yield 1.0 g resting tension. The left atrium was stimulated at 3Hz at 1.5×threshold. The duration (3 msec) and intensity of the pulses (1.5-3.0 Volts) were kept constant throughout an experiment.
as §5, §6

[4] = 100 pg, change from pre-drug value

relaxin
biological activity [1]: biologically active
right atrial heart rate % Δ, mean (X) (right atrium; 100 pg (printed under 30 pg)): 0.17%
right atrial heart rate (right atrium; 100 pg): 290 beats/min and 270 beats/min and 300 beats/min and 320 beats/min
right atrial heart rate % Δ (right atrium; [4]): 0% and 1%
right atrial heart rate % Δ, mean (X) (right atrium; 300 pg (printed under 100 pg)): 3.83%
right atrial heart rate (right atrium; 300 pg): 300 beats/min and 295 beats/min and 310 beats/min and 330 beats/min
right atrial heart rate % Δ (right atrium; 300 pg): 3% and 9% and 5% and 0%
right atrial heart rate % Δ, mean (X) (right atrium; 1 ng (printed under 300 pg)): 11.67%
right atrial heart rate (right atrium; 1 ng): 320 beats/min and 310 beats/min and 350 beats/min and 345 beats/min
right atrial heart rate % Δ, mean (X) (right atrium; 3 ng (printed under 1 ng)): 23.33%
right atrial heart rate (right atrium; 3 ng): 345 beats/min and 350 beats/min and 400 beats/min and 360 beats/min and 365 beats/min
right atrial heart rate % Δ, mean (X) (right atrium; 10 ng (printed under 3 ng)): 32.0%
right atrial heart rate (right atrium; 10 ng): 345 beats/min and 390 beats/min and 445 beats/min and 370 beats/min and 385 beats/min and 380 beats/min
right atrial heart rate % Δ, mean (X) (right atrium; 30 ng (printed under 10 ng)): 36.2%
average increase in contraction rate (right atrium; 30 ng/minute dose): 36%
right atrial heart rate (right atrium; 30 ng): 400 beats/min and 450 beats/min and 385 beats/min and 395 beats/min and 405 beats/min
point of half maximal increase in contraction rate (right atrium; right atrium): about 1.8 ng/ml
heart rate [2]: small but consistent increase in heart rate
systolic and diastolic pressure [2]: decrease in systolic and diastolic pressure
chronotropic and inotropic effects [3]: positive chronotropic and inotropic effects
left atrium contractile force % Δ, mean (X) (left atrium; 100 pg): -6%
left atrium contractile force % Δ (left atrium; [4]): -12% and -5% and -4% and -3%
left atrium contractile force % Δ, mean (X) (left atrium; 300 pg): -9.5%
left atrium contractile force % Δ, mean (X) (left atrium; 1 ng): 1.0%
left atrium contractile force % Δ, mean (X) (left atrium; 3 ng): 14.3%
left atrium contractile force % Δ, mean (X) (left atrium; 10 ng): 30%
left atrium contractile force % Δ (left atrium; 10 ng): 22% and 38% and 40% and 20%
left atrium contractile force % Δ, mean (X) (left atrium; 30 ng): 37.8%
peak decrease in contractile force (left atrium; at 300 pg/ml): 10%
peak increase in contractile force (left atrium; at 30 ng/ml): 38%
point of half maximal increase in contractile force (left atrium; left atrium): about 4.8 ng/ml
